Source: paper PMC4114533, “Synthesis, Anti-tubulin and Antiproliferative SAR of Steroidomimetic Dihydroisoquinolinones” (Chemmedchem, 2014)

Legend:
[1] = tested on: DU-145 human prostate cancer cells; assay: Antiproliferative assay (WST-1, 96 h), DU-145; format: cell-based; conditions: for GI50: Homo sapiens, DU-145 cells, 96 h, WST-1, mean of three determinations
Method: (§1) Cell lines: DU-145 (brain metastasis carcinoma of the prostate) and MDA MB-231 (metastatic pleural effusion of breast adenocarcinoma) established human cell lines were obtained from ATCC Global Bioresource Center. Cells were maintained in a 5 % CO2 humidified atmosphere at 37 °C in RPMI-1640 medium, supplemented with 10 % fetal bovine serum, penicillin, (100 U mL^−1), and streptomycin (0.1 mg mL^−1). The effect of drugs on tubule formation was assessed using an angiogenesis kit (TCS-Cellworks).
(§2) Antiproliferative assays: DU-145 and MDA MB-231 cells were seeded into 96-well microtitre plates (5000 cells per well) and treated with compound (10^−9–10^−4 M) or with vehicle control. At 96 h post-treatment, live cell counts were determined by WST-1 cell proliferation assay (Roche, Penzberg, Germany), as per the manufacturer’s instructions. Viability results were expressed as a percentage of mean control values resulting in the calculation of the 50 % growth inhibition (GI50). All experiments were performed in triplicate.

[2] = tested on: MDA MB-231 human breast cancer cells; assay: Antiproliferative assay (WST-1, 96 h), MDA MB-231; format: cell-based; conditions: MDA MB-231 cells, WST-1, mean of three determinations
Method: as §1, §2

GI50 [1] | GI50 [2] | SMILES | antiproliferative activity (in words) ([1]; in vitro antiproliferative activity, result in words)
9.1 µM | 7.1 µM | COc1cc2c(cc1OS(N)(=O)=O)CCN(C(=O)c1ccccc1OC)C2=O [17 a, 2-(2-Methoxybenzoyl)-7-methoxy-6-sulfamoyloxy-3,4-dihydroisoquinolin-1(2H)-one] | 
> 100 µM | 13.4 µM | COc1cc2c(cc1O)CCN(S(=O)(=O)c1ccccc1OC)C2=O [11 a, 6-Hydroxy-7-methoxy-2-((2-methoxyphenyl)sulfonyl)-3,4-dihydroisoquinolin-1(2H)-one] | 
70 µM | 37.4 µM | COc1cc2c(cc1O)CCN(C(=O)c1cccc(C#N)c1)C2=O [16 c, 2-(3-Cyanobenzoyl)-6-hydroxy-7-methoxy-3,4-dihydroisoquinolin-1(2H)-one] | 
> 100 µM | > 100 µM | COc1ccc(S(=O)(=O)N2CCc3cc(OS(N)(=O)=O)c(OC)cc3C2=O)cc1 [12 c, 7-Methoxy-2-((4-methoxyphenyl)sulfonyl)-6-(sulfamoyloxy)-3,4-dihydroisoquinolin-1(2H)-one] | 
5.3 µM | 3.5 µM | COc1cccc(C(=O)N2CCc3cc(OS(N)(=O)=O)c(OC)cc3C2=O)c1 [17 b, 2-(3-Methoxybenzoyl)-7-methoxy-6-sulfamoyloxy-3,4-dihydroisoquinolin-1(2H)-one] | 
3.63 µM | 1.89 µM | COc1cccc(C(=O)N2CCc3cc(O)c(OC)cc3C2=O)c1 [16 b, 6-Hydroxy-2-(3-methoxybenzoyl)-7-methoxy-3,4-dihydroisoquinolin-1(2H)-one] | 
> 100 µM | > 100 µM | COc1cc2c(cc1OCc1ccccc1)CCN(S(=O)(=O)c1cccc(Cl)c1)C2=O [10 d, 6-Benzyloxy-7-methoxy-2-((3-chlorophenyl)sulfonyl)-3,4-dihydroisoquinolin-1(2H)-one] | 
> 100 µM | > 100 µM | COc1cc2c(cc1OCc1ccccc1)CCN(S(=O)(=O)c1ccccc1OC)C2=O [10 a, 6-Benzyloxy-7-methoxy-2-((2-methoxyphenyl)sulfonyl)-3,4-dihydroisoquinolin-1(2H)-one] | 
> 100 µM | > 100 µM | COc1cccc(S(=O)(=O)N2CCc3cc(OCc4ccccc4)c(OC)cc3C2=O)c1 [10 b, 6-Benzyloxy-7-methoxy-2-((3-methoxyphenyl)sulfonyl)-3,4-dihydroisoquinolin-1(2H)-one] | 
> 100 µM | > 100 µM | COc1cc2c(cc1OCc1ccccc1)CCN(C(=O)c1cccc(C#N)c1)C2=O [15 c, 6-Benzyloxy-2-(3-cyanobenzoyl)-7-methoxy-3,4-dihydroisoquinolin-1(2H)-one] | 
> 100 µM | 77.5 µM | COc1cc2c(cc1OCc1ccccc1)CCN(C(=O)c1cc(OC)c(OC)c(OC)c1)C2=O [15 g, 6-Benzyloxy-7-methoxy-2-(3,4,5-trimethoxybenzoyl)-3,4-dihydroisoquinolin-1(2H)-one] | 
> 100 µM |  | COc1ccc(C(=O)N2CCc3cc(OS(N)(=O)=O)c(OC)cc3C2)cc1OC [19 a, 2-(3,4-Dimethoxybenzoyl)-7-methoxy-6-sulfamoyloxy-1,2,3,4-tetrahydroisoquinoline] | completely inactive
6.42 µM | 5.6 µM | COc1cc2c(cc1O)CCN(C(=O)c1ccccc1OC)C2=O [16 a, 6-Hydroxy-2-(2-methoxybenzoyl)-7-methoxy-3,4-dihydroisoquinolin-1(2H)-one] | 
> 100 µM |  | COc1cc(CN2CCc3cc(OS(N)(=O)=O)c(OC)cc3C2=O)cc(OC)c1 [9 d, 7-Methoxy-2-(3,5-dimethoxybenzyl)-6-sulfamoyloxy-3,4-dihydroisoquinolin-1(2H)-one] | 
3.4 µM | 2.08 µM | COc1ccc(C(=O)N2CCc3cc(OS(N)(=O)=O)c(OC)cc3C2=O)cc1OC [17 e, 2-(3,4-Dimethoxybenzoyl)-7-methoxy-6-sulfamoyloxy-3,4-dihydroisoquinolin-1(2H)-one] | 
> 100 µM | 43.6 µM | COc1cc2c(cc1OCc1ccccc1)CCN(C(=O)c1ccccc1OC)C2=O [15 a, 6-Benzyloxy-2-(2-methoxybenzoyl)-7-methoxy-3,4-dihydroisoquinolin-1(2H)-one] | 
